From patent US10869931B2, “Polyethylene glycol-modified angiogenesis inhibitor HM-1 and application thereof” (NANJING ANJI BIOLOGICAL TECHNOLOGY CO.,LTD, priority 2016, dated 2020)
Marks after values point to notes of the source that are not given here. Where no end group is shown, it is not given here.

How the values were obtained:
[1] = test system: Human Umbilical Vein Endothelial Cells (HUVEC); assay: Transwell migration of HUVEC; format: cell-based; conditions: 24 h
Method in brief: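 HUVEC (1×10^5/mL in blank medium) seeded with test solutions into Matrigel-coated transwell inserts, lower chamber holding medium with 5% FBS and 1% ECGS, 24 h at 37 °C. Migrated cells crystal-violet stained and counted in four fields; migration inhibition calculated from test versus blank-control counts, three independent repeats.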

[2] = test system: Esophageal cancer tumor cells; assay: MTT proliferation inhibition, esophageal cancer cells; format: cell-based, human; set-up: concentration or dose not given beside the values; conditions: 48 h
Method in brief: (§1)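 Tumour cells plated at 2×10^4 cells/mL, attached overnight, then exposed to dilutions of mPEG-HM-1 for 48 h at 37 °C, 5% CO2. MTT added 4 h, formazan dissolved in DMSO, absorbance 570/630 nm; growth inhibition = 1 − treated/untreated, three independent repeats, mean±SD.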

Liver cancer tumor cells = assay: MTT proliferation inhibition, liver cancer cells; format: cell-based, human; set-up: concentration or dose not given beside the values; conditions: 48 h
Method in brief: as §1

[3] = test system: Pancreatic cancer tumor cells; assay: MTT proliferation inhibition, pancreatic cancer cells; format: cell-based, human; set-up: concentration or dose not given beside the values; conditions: 48 h
Method in brief: as §1

sarcoma tumor cells = assay: MTT proliferation inhibition, sarcoma cells; format: cell-based, human; set-up: concentration or dose not given beside the values; conditions: 48 h
Method in brief: as §1

Lung cancer tumor cells = assay: MTT proliferation inhibition, lung cancer cells; format: cell-based, human; set-up: concentration or dose not given beside the values; conditions: 48 h
Method in brief: as §1

[4] = test system: Colorectal cancer tumor cells; assay: MTT proliferation inhibition, colorectal cancer cells; format: cell-based, human; set-up: concentration or dose not given beside the values; conditions: 48 h
Method in brief: as §1

[5] = test system: corneal neovascularization in BALB/c mice; assay: Alkali-burn corneal neovascularization in BALB/c mice (CD31 microvessel density); format: in vivo, mouse; conditions: for Inhibition rate: corneal microvessel density vs control; for Inhibition rate / MVD: day 14 after alkali burn, intravitreal once a day for 1 week; for MVD: microvessel density (CD31) of cornea
Excerpt: (1) Preparation of corneal neovascularization model induced by alkali burn in BALB/c mice: mice were randomly grouped and labeled as mPEG-HM-1 experimental group and control group, 5 […] in each group, respectively, was given mPEG-HM-1 and saline by Intravitreal injection after alkali burn, once a day for 1 week. The inflammatory reaction and neovascularization of the cornea were observed under slit lamp microscope at 1 d, 7 d, and 14 d after alkali burn. On the 14th day after alkali burn, the corneal neovascularization was recorded under the slit lamp microscope in the anterior segment of the eye. All the mice were euthanized by cervical dislocation and the eyeballs were removed, washed with saline to rid of blood, and was fixed in 4% paraformaldehyde for 1.5 h, dehydrated in PBS containing 30% sucrose overnight, embedded in OCT frozen section embedding agent, stored in −80° C. refrigerator, frozen section 8 μm, and underwent immunocytochemical detection of CD31 expression. (2) Quantitative measurement of corneal tissue microvessel density: Microvessel density (MVD) is an indicator for evaluating angiogenesis. Vascular endothelial cells were labeled with anti-CD31 antibody by immunohistochemistry, and the number of microvessels per unit area was counted to measure the degree of neovascularization. Standards for counting microvessels: Microscopically, the endothelial cells or cell clusters that are clearly demarcated from adjacent tissues in the corneal tissue and stained brown or brown are counted in the neovascularization. The number of new blood vessels in the whole section was counted under a 10×20 microscope. After the corneal tissue was photographed, the entire corneal tissue area was calculated by image processing software Image J, and the neovascular density of the whole section was determined. The test was repeated 3 times independently. The results obtained by the test were expressed as mean±SD, and a statistical T test was performed. *P<0.05 was a significant difference, and **P<0.01 was a very significant difference.

Row | Substance | cell migration number (Mean ± SD) ([1]; 90 μg/mL) | inhibition rate of HUVEC migration ([1]; 90 μg/mL) | cell migration number (Mean ± SD) ([1]; 100 μg/mL) | inhibition rate of HUVEC migration ([1]; 100 μg/mL) | rate of growth inhibition [2] | rate of growth inhibition (Liver cancer tumor cells) | rate of growth inhibition [3] | rate of growth inhibition (sarcoma tumor cells) | rate of growth inhibition (Lung cancer tumor cells) | rate of growth inhibition [4] | Inhibition rate [5] | MVD [5] | other results
1 | mPEG-bALD10k-Arg-Gly-Ala-Asp-Arg-Ala-Gly-Gly-Gly-Gly-Arg-Gly-Asp ({mPEG‑bALD 10 kDa}-RGADRAGGGGRGD) [mPEG-bALD10k-HM-1] | 504.35 ± 48.36 | 53.82%** | 568.57 ± 56.90 | 47.94%* | 64.92 ± 12.17% | 68.59 ± 20.19% | 75.23 ± 16.41% | 52.01 ± 12.32% | 66.72 ± 14.42% | 75.62 ± 18.03% | 52.03% | 32.01 ± 5.738** | cell migration number (Mean ± SD) ([1]; 50 μg/mL): 589.97 ± 56.24; inhibition rate of HUVEC migration ([1]; 50 μg/mL): 45.98%*; cell migration number (Mean ± SD) ([1]; 60 μg/mL): 483.16 ± 50.26; inhibition rate of HUVEC migration ([1]; 60 μg/mL): 55.76%; inhibition rate of HUVEC migration ([1]; 70 μg/mL): 60.38%**; inhibition rate of corneal neovascularization ([5]; BALB/c mice, alkali burn, intravitreal injection once a day for 1 week): 52.03%
2 | mPEG-bALD20k-Arg-Gly-Ala-Asp-Arg-Ala-Gly-Gly-Gly-Gly-Arg-Gly-Asp ({mPEG‑bALD 20 kDa}-RGADRAGGGGRGD) [mPEG-bALD20k-HM-1] | – | 53.82% | – | – | 60.56 ± 14.72% | 62.49 ± 16.14% | 69.54 ± 18.37% | 50.91 ± 10.64% | 65.31 ± 15.54% | 70.73 ± 16.92% | 47.84% | 34.81 ± 6.817** | inhibition rate of HUVEC migration ([1]; 80 μg/mL): 55.68%
3 | mPEG-bALD40k-Arg-Gly-Ala-Asp-Arg-Ala-Gly-Gly-Gly-Gly-Arg-Gly-Asp ({mPEG‑bALD 40 kDa}-RGADRAGGGGRGD) [mPEG-bALD40k-HM-1] | 652.01 ± 52.63 | 40.30%* | 523.03 ± 60.52 | 52.11% | 57.19 ± 12.07% | 58.72 ± 10.80% | 62.85 ± 18.74% | 47.90 ± 10.70% | 56.47 ± 14.15% | 66.90 ± 16.27% | 45.27% | 36.52 ± 6.537** | cell migration number (Mean ± SD) ([1]; 110 μg/mL): 545.63 ± 46.84; inhibition rate of HUVEC migration ([1]; 110 μg/mL): 50.04%; cell migration number (Mean ± SD) ([1]; 120 μg/mL): 596.64 ± 50.46; inhibition rate of HUVEC migration ([1]; 120 μg/mL): 45.37%*
